Data from patent US12552834B2, “Selective MENA binding peptides” (MASSACHUSETTS INSTITUTE OF TECHNOLOGY, priority 2021, dated 2026).
Where no end group is shown, it is not given here. disordered linker = not defined here

What was measured:
[1] = test system: EVL Y63C, I26A and VASP W89Y, L15V; assay: BLI, binding to EVL and VASP hydrophobic core mutants
VASP or EVL EVH1 domains = assay: BLI, paralog selectivity: ENAH versus VASP or EVL EVH1 domains; format: binding
Protocol: Next, we examined whether residues flanking FP4 (SEQ ID NO:46) SLiMs impact paralog specificity.
All BLI experiments were performed with 2 replicates on an Octet Red96 instrument (ForteBio). Biotinylated, 6×-His-Sumo-peptide fusions purified in small scale were diluted into BLI buffer (PBS pH 7.4, 1% BSA, 0.1% Tween-20, 1 mM DTT) and immobilized onto streptavidin-coated tips (ForteBio) until loading reached a response level between 0.5-0.6 nm. The loaded tips were immersed in a solution of ENAH EVH1 domain at a relevant dilution series in BLI buffer at an orbital shake speed of 1000 rpm and run until the binding signal plateaued. ENAH-bound tips were subsequently placed into BLI buffer only for dissociation and run until the binding signal plateaued. KD values were obtained through steady state analysis. Briefly, the data were corrected for background by subtracting the signal obtained when doing the same experiment using a biotinylated, 6×-His Sumo instead of an immobilized ENAH-binding peptide. The association phases were then fit to a one-phase binding model in Prism and the equilibrium steady-state binding signal values from that fit were plotted against ENAH concentration and fit to a single-site specific binding model in Prism to obtain dissociation constants. Errors reported are the standard deviation of two replicates. […]

ENAH EVH1 domain = target: T1, ENAH EVH1 domain (Homo sapiens, UniProt Q8N8S7); assay: Biolayer interferometry (BLI), SUMO-peptide fusions binding monomeric ENAH EVH1 domain WT
T1 construct: places a 6×-His and TEV cleavage tag N-terminal to the EVH1 domain; 6×-His + TEV cleavage site (N, cleaved yes); made in house; host or cells: E. coli Rosetta2(DE3)
T1 sequence (Q8N8S7 with tags, fused parts or gaps): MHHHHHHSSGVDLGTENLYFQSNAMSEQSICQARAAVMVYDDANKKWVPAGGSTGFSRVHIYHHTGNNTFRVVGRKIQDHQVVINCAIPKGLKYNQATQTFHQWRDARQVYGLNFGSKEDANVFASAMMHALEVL
Protocol: All BLI experiments were performed with 2 replicates on an Octet Red96 instrument (ForteBio). […] The loaded tips were immersed in a solution of ENAH EVH1 domain at a relevant dilution series in BLI buffer at an orbital shake speed of 1000 rpm and run until the binding signal plateaued. ENAH-bound tips were subsequently placed into BLI buffer only for dissociation and run until the binding signal plateaued. KD values were obtained through steady state analysis. […] The association phases were then fit to a one-phase binding model in Prism and the equilibrium steady-state binding signal values from that fit were plotted against ENAH concentration and fit to a single-site specific binding model in Prism to obtain dissociation constants. Errors reported are the standard deviation of two replicates.
Monomeric ENAH, EVL, or VASP EVH1 domains for use in BLI and ITC experiments, or ENAH EVH1-peptide fusions for crystallography was cloned into a pMCSG7 vector (gift from Frank Gertler, MIT), which places a 6×-His and TEV cleavage tag N-terminal to the EVH1 domain. These constructs were transformed into Rosetta2(DE3) cells and grown in 2×YT media supplemented with 100 μg/mL ampicillin. Cells were grown while shaking at 37° C. to an O.D. 600 of 0.5-0.7, and then cooled on ice for at least 20 minutes. They were then induced with 0.5 mM IPTG and grown while shaking at 18° C. overnight. Induced cultures were resuspended in 25 mL of wash buffer (20 mM Hepes pH 7.6, 500 mM NaCl, 20 mM imidazole) and frozen at −80° C. overnight. The next day, cultures were sonicated, spun down, and applied to Ni-NTA acid agarose resin equilibrated with wash buffer, and washed as described above. Samples were eluted in 10 mL elution buffer (20 mM Hepes pH 7.6, 500 mM NaCl, […]). TEV protease was added to the elution at a ratio of 1 mg TEV:50 mg tagged protein along with 1 mM DTT. This mixture was dialyzed against TEV cleavage buffer (50 mM Hepes pH 8.0, 300 mM NaCl, 5 mM DTT, 1 mM EDTA) at 4° C. overnight and then applied over Ni-NTA acid agarose resin equilibrated with wash buffer. The column was washed with 2×8 mL of wash buffer, and the resulting flow-through and washes were pooled, concentrated, and applied to an S75 26/60 column equilibrated in gel filtration buffer (20 mM Hepes pH 7.6, 150 mM NaCl, 1 mM DTT, 1% glycerol). Purity was verified by SDS-PAGE and combined fractions were concentrated and flash frozen at −80° C.
Rosetta2(DE3) cells (Novagen) were transformed with pDW363 vector encoding 6×-His-SUMO-peptide fusions and grown in 20 mL of LB+100 μg/mL Ampicillin+0.050 mM D-(+)-Biotin dissolved in DMSO for in vivo biotinylation. Cells were grown to an OD of 0.5-0.7 with 1 mM IPTG and induced for 4-6 hours at 37° C. Pellets were spun down and frozen and −80° C. for at least 2 hours. These pellets were then thawed and resuspended in B-PER reagent (ThermoFisher) at 4 mL/gram of pellet with 0.2 mM PMSF. This suspension was shaken at 25° C. for 10-15 minutes, and then spun down at 15,000 g for 10 minutes. The supernatant was applied to 250 μL of Ni-NTA acid agarose resin equilibrated in 20 mM Tris pH 8.0, 500 mM NaCl, 20 mM Imidazole (Buffer A), and then washed 3 times with 1 mL of this buffer. Peptides were eluted in 1.8 mL of 20 mM Tris pH 8.0, 500 mM NaCl, 300 mM imidazole to use in BLI assays.

[2] = test system: MV^D7shEVL cells expressing GFP-ENAH, GFP-EVL or GFP-VASP; assay: Live-cell imaging of PCARE constructs co-expressed with GFP-tagged Ena/VASP paralogs; format: cell-based, mice
Text: MV^D7 are embryonic fibroblasts derived from Enah^−/− Vasp^−/− mice, with low Evl expression (Auerbach 2003, Damiano-Guercio 2020). As Ena/VASP family members are known to heterotetramerize (Riquelme 2015), we used an shRNA against Evl to provide a clean background (average knockdown of MV^D7shEVL versus MV^D7 42.8+/−1.8% by qPCR, 3 biological replicates).
Together, these findings indicate that PCARE interacts specifically with ENAH and is capable of recruiting ENAH away from its normal functional sites. […]
Cells were imaged on a Ti-E inverted microscope (Nikon), with a 100× Apo TIRF 1.49 NA objective (Nikon) and an ORCA-Flash 4.0 V2 CMOS camera (Hamamatsu). For focal adhesion assessment, cells were imaged with total internal reflection fluorescence (TIRF) microscopy. To increase the depth of imaging for examination of mitochondrial localization, standard widefield fluorescence microscopy was used. Focal adhesion quantification was performed as previously described (Puleo 2019). […] Focal adhesion area was quantified by measuring the paxillin area of each cell within the whole cell area, or by examining individual focal adhesions. […]

Compound: CSCC[C@H](NC(=O)[C@H](CC(C)C)NC(=O)[C@@H](NC(=O)[C@H](CCC(=O)O)NC(=O)[C@H](CCSC)NC(=O)[C@@H]1CCCN1C(=O)[C@@H]1CCCN1C(=O)[C@@H]1CCCN1C(=O)[C@@H]1CCCN1C(=O)[C@H](CC(C)C)NC(=O)[C@H](Cc1c[nH]cn1)NC(=O)[C@H](CCC(=O)O)NC(=O)[C@H](CC(C)C)NC(=O)[C@@H](N)CC(N)=O)C(C)C)C(=O)N[C@@H](CC(=O)O)C(=O)N[C@@H](CCCCN)C(=O)N[C@@H](CO)C(=O)N[C@@H](Cc1ccccc1)C(=O)N[C@@H](C)C(=O)N[C@@H](CO)C(=O)N[C@@H](CC(C)C)C(=O)N[C@@H](CCC(=O)O)C(=O)N[C@@H](CO)C(=O)O [PCARE B]
- binding to EVL Y63C, I26A and VASP W89Y, L15V, in words [1]: not sufficient to confer high affinity of binding

Compound: CSCC[C@H](NC(=O)[C@H](CC(C)C)NC(=O)[C@@H](NC(=O)[C@H](CCC(=O)O)NC(=O)[C@H](CCSC)NC(=O)[C@@H]1CCCN1C(=O)[C@@H]1CCCN1C(=O)[C@@H]1CCCN1C(=O)[C@@H]1CCCN1C(=O)[C@H](CC(C)C)NC(=O)[C@H](Cc1c[nH]cn1)NC(=O)[C@H](CCC(=O)O)NC(=O)[C@H](CC(C)C)NC(=O)[C@@H](N)CC(N)=O)C(C)C)C(=O)N[C@@H](CC(=O)O)C(=O)N[C@@H](CCCCN)C(=O)N[C@@H](CO)C(=O)N[C@@H](Cc1ccccc1)C(=O)N[C@@H](C)C(=O)N[C@@H](CO)C(=O)N[C@@H](CC(C)C)C(=O)N[C@@H](CCC(=O)O)C(=O)N[C@@H](CO)C(=O)NCC(=O)N[C@@H](CO)C(=O)NCC(=O)N[C@@H](CO)C(=O)N1CCC[C@H]1C(=O)N1CCC[C@H]1C(=O)N1CCC[C@H]1C(=O)N1CCC[C@H]1C(=O)N1CCC[C@H]1C(=O)N[C@@H](Cc1ccccc1)C(=O)O [PCARE-Dual]
- preference / selectivity for ENAH over VASP or EVL EVH1 domains (VASP or EVL EVH1 domains): 400-600 fold
- tighter binding than PCARE B (ENAH EVH1 domain): ~7 fold
- slower dissociation than dual-motif peptide LPP (ENAH EVH1 domain; BLI off-rate): ~100 fold

Compound: mRuby2-PCARE: PCARE^822-848 tagged at the N-terminus with mRuby2 and a disordered linker, lentiviral expression ({mRuby2-disordered linker}-EMEGNLEHLPPPPMEVLMDKSFASLES; reading uncertain; UniProt A6NGG8 822-848, looked up, fragment)
- localization of the PCARE construct ([2]; all conditions except co-expression with ENAH (GFP, ΔEVH1-ENAH, EVL, VASP)): diffuse cytoplasmic localization
- localization of the PCARE construct ([2]; co-expressed with GFP-ENAH): moderately recruited to focal adhesions
